Reference: patent US6218367A, “Paclitaxel-carbohydrate conjugates: design, synthesis and biological evaluations” (Organomed Corporation, priority 1999, dated 2001)
Like-named read-outs stand apart in the source and are kept apart here.

Assays:
PC-3 = assay: NCI in vitro human tumor cell line screen, prostate cancer; type: cell-based
OVCAR-8 = assay: NCI in vitro human tumor cell line screen, ovarian cancer; type: cell-based; settings: OVCAR-8, ovarian cancer, 48 hours
IGROVI = assay: as above; type: cell-based; settings: vs paclitaxel
HCT-116 = assay: NCI in vitro human tumor cell line screen, colon cancer; type: cell-based; settings: HCT-116, colon cancer, 48 hours
HL-60TB = assay: NCI in vitro human tumor cell line screen, leukemia; type: cell-based
SN12C = assay: NCI in vitro human tumor cell line screen, renal cancer; type: cell-based
breast cancer cell lines = assay: NCI screen, breast cancer cell lines as a group; type: cell-based, human; settings: for GI50: Homo sapiens, 48 h, read-out: GI50 values, range
ADR-RES = assay: NCI in vitro human tumor cell line screen, breast cancer; type: cell-based; settings: vs paclitaxel
COLO205 = assay: NCI in vitro human tumor cell line screen, colon cancer; type: cell-based
DU-145 = assay: NCI in vitro human tumor cell line screen, prostate cancer; type: cell-based
SF-295 = assay: NCI in vitro human tumor cell line screen, CNS cancer; type: cell-based
MCF-7 = assay: NCI in vitro human tumor cell line screen, breast cancer; type: cell-based
CCRF-CEM = assay: NCI in vitro human tumor cell line screen, leukemia; type: cell-based
HCT-15 = assay: NCI in vitro human tumor cell line screen, colon cancer; type: cell-based
[1] = test system: ovarian cancer cell lines; assay: NCI screen, ovarian cancer cell lines as a group; type: cell-based, human; settings: for GI50: Homo sapiens, read-out: GI50 values, range
NCI-H322M = assay: NCI in vitro human tumor cell line screen, non small lung cancer; type: cell-based; settings: 48 hours
[2] = test system: various cancer cell lines; assay: NCI in vitro human tumor cell line screen, various cancer cell lines; type: cell-based; settings: for IC (TGI): Homo sapiens, 48 h, read-out: TGI values (concentrations), order of magnitude
Experimental: (§1) Compounds were tested as described (Monks, A. et al., (1991). J. Nat. Cancer Int., 83, 757-766; Boyd, M. R., and Paull, K. D., (1995) "Some practical considerations and applications of the National Cancer Institute In Vitro Anticancer Drug Discovery Program", Drug Development Res., 34, 91-109 in the NCI in vitro human tumor cell line screen). The compounds were examined in 60 different cell lines. The following definitions are based on the National Cancer Institute in vitro screen protocol (Boyd, M. R., and Paull, K. D., (1995) "Some practical considerations and applications of the National Cancer Institute In Vitro Anticancer Drug Discovery Screen", ibid., 34, 91-109).
(§2) The "50% growth inhibition" parameter (GI50) is the concentration of test drug where: [formula]
(§3) T is the optical density of the test well after 48 hours drug exposure, T0 is the optical density at time zero, and C is the control optical density, PG is the "percent growth". It is a T/C like parameter that can have values from +100 to -100.
(§4) Total Growth Inhibition (TGI) signifies the cytostatic level effect: [formula]
The LC50 is the lethal dose concentration, "net cell killing" or cytotoxicity parameter: [formula]
(§5) The GI50, TGI and LC50 values were calculated by interpolation using the tested concentrations that give PG values above and below the response reference values (e.g. 50 for GI50). Dose-response curves are compared for compound 1 and paclitaxel for breast cancer, ovarian cancer, CNS cancer and non-small lung cancer in FIGS. 1-4 respectively.

U251 = assay: NCI in vitro human tumor cell line screen, CNS cancer; type: cell-based; settings: U-251, 48 hours
MDA-N = assay: NCI in vitro human tumor cell line screen, breast cancer; type: cell-based
Experimental: as §1, §2, §3, §4, §5

MDA-MB-435 = assay: as above; type: cell-based; settings: 48 h, MDA-MB-435, breast cancer, read-out: TGI (total growth inhibition)
Experimental: as §1, §2, §3, §4, §5

HS578T = assay: as above; type: cell-based; settings: Hs-578T
Experimental: as §1, §2, §3, §4, §5

OVCAR-3 = assay: NCI in vitro human tumor cell line screen, ovarian cancer; type: cell-based
RPMI-8226 = assay: NCI in vitro human tumor cell line screen, leukemia; type: cell-based; settings: RPMI-8226, leukemia, 48 hours
A549/ATCC = assay: NCI in vitro human tumor cell line screen, non small lung cancer; type: cell-based; settings: 48 hours
[3] = Water solubility as equilibrium concentration by HPLC
Experimental: The water solubility of compound 1 was determined as an equilibrium concentration at room temperature using HPLC measurements.

RXF-393 = assay: NCI in vitro human tumor cell line screen, renal cancer; type: cell-based
SNB-75 = assay: NCI in vitro human tumor cell line screen, CNS cancer; type: cell-based; settings: for GI50: Homo sapiens
Experimental: as §1, §2, §3, §4, §5

SW-620 = assay: NCI in vitro human tumor cell line screen, colon cancer; type: cell-based; settings: SW-620, colon cancer, 48 hours
SF-268 = assay: NCI in vitro human tumor cell line screen, CNS cancer; type: cell-based; settings: for GI50: Homo sapiens
CNS cancer = assay: NCI screen, CNS cancer dose response curves; type: cell-based, human; settings: FIG. 3, vs paclitaxel
UACC-62 = assay: NCI in vitro human tumor cell line screen, melanoma; type: cell-based; settings: UACC-62, melanoma, vs paclitaxel
NCI-H23 = assay: NCI in vitro human tumor cell line screen, non small lung cancer; type: cell-based
EKVX = assay: as above; type: cell-based; settings: 48 hours
SF-539 = assay: NCI in vitro human tumor cell line screen, CNS cancer; type: cell-based; settings: SF-539, CNS cancer, 48 hours
OVCAR-5 = assay: NCI in vitro human tumor cell line screen, ovarian cancer; type: cell-based
HCC-2998 = assay: NCI in vitro human tumor cell line screen, colon cancer; type: cell-based; settings: HCC-2998, colon cancer, 48 hours
NCI-H226 = assay: NCI in vitro human tumor cell line screen, non small lung cancer; type: cell-based; settings: 48 hours
SK-OV-3 = assay: NCI in vitro human tumor cell line screen, ovarian cancer; type: cell-based; settings: SK-OV-3, ovarian cancer, 48 hours
MOLT-2 = assay: NCI in vitro human tumor cell line screen, leukemia; type: cell-based; settings: MOLT-2, leukemia, 48 hours
SNB-19 = assay: NCI in vitro human tumor cell line screen, CNS cancer; type: cell-based; settings: SNB-19, CNS cancer, 48 hours
HT-29 = assay: NCI in vitro human tumor cell line screen, colon cancer; type: cell-based
Experimental: as §1, §2, §3, §4, §5

[4] = test system: non-small cell lung cancer; assay: NCI screen, non-small cell lung cancer dose response curves; type: cell-based, human; settings: FIG. 4, vs paclitaxel
HOP-62 = assay: NCI in vitro human tumor cell line screen, non small lung cancer; type: cell-based; settings: HOP-62, non small lung cancer, 48 hours
786-0 = assay: NCI in vitro human tumor cell line screen, renal cancer; type: cell-based
NCI-H522 = assay: NCI in vitro human tumor cell line screen, non small lung cancer; type: cell-based; settings: 48 hours
T-47D = assay: NCI in vitro human tumor cell line screen, breast cancer; type: cell-based
[5] = 48 h, read-out: TGI (total growth inhibition)

CC(=O)OC1C(=O)C2(C)C(O)CC3OCC3(OC(C)=O)C2C(OC(=O)c2ccccc2)C2(O)CC(OC(=O)C(OC(=O)CCC(=O)NCCCC(=O)OC3C(O)C(O)OC(CO)C3O)C(NC(=O)c3ccccc3)c3ccccc3)C(C)=C1C2(C)C (stereo not drawn) [chackol, (3-glucose) GABA paclitaxel succinate]
GI50 (PC-3; Homo sapiens, PC-3, prostate cancer, 48 hours): 0.276 nM
times more active than paclitaxel (GI50) (PC-3; PC-3, vs paclitaxel): 10 times
GI50 (OVCAR-8): 0.437 nM
times more active than paclitaxel (GI50) (IGROVI): 45 times
GI50 (HCT-116): 0.228 nM
times more active than paclitaxel (GI50) (HL-60TB; HL-60 (TB), vs paclitaxel): 8 times
GI50 (HL-60TB; Homo sapiens, HL-60TB, leukemia, 48 hours): 0.249 nM
GI50 (SN12C; Homo sapiens, renal cancer, 48 hours): 0.481 nM
times more active than paclitaxel (GI50) (SN12C; vs paclitaxel): 16 times
GI50 (breast cancer cell lines; breast lines MCF-7, ADR-RES and T-47D): 0.1 to 10 nM
dose response curve compared with paclitaxel (breast cancer cell lines; breast cancer, FIG. 1, vs paclitaxel): extend one log unit lower than those for paclitaxel
times more active than paclitaxel (GI50) (ADR-RES): 23 times
times more active than paclitaxel (GI50) (COLO205; COLO25 (so in the source), vs paclitaxel): 19 times
GI50 (COLO205; Homo sapiens, COLO 205, COLO205, colon cancer, 48 hours): 0.247 nM
times more active than paclitaxel (GI50) (DU-145; DU-145, vs paclitaxel): 12 times
GI50 (DU-145; Homo sapiens, DU-145, prostate cancer, 48 hours): 0.401 nM
GI50 (SF-295; Homo sapiens, SF-295, CNS cancer, 48 hours): 1.44 nM
times more active than paclitaxel (GI50) (SF-295; SF-295, vs paclitaxel): 25 times
GI50 (MCF-7; Homo sapiens, MCF7, MCF-7, breast cancer, 48 hours): 0.256 nM
times more active than paclitaxel (GI50) (MCF-7; MCF-7, vs paclitaxel): 15 times
GI50 (CCRF-CEM; Homo sapiens, leukemia, 48 hours): 0.313 nM
times more active than paclitaxel (GI50) (CCRF-CEM; vs paclitaxel): 8 times
times more active than paclitaxel (GI50) (HCT-15; HCT-15, vs paclitaxel): 7 times
GI50 (HCT-15; Homo sapiens, HCT-15, colon cancer, 48 hours): 27.9 nM
GI50 ([1]; ovarian lines OVCAR-3, OVCAR-5 and IGROVI): ~0.1 nM
dose response curve compared with paclitaxel ([1]; ovarian cancer, FIG. 2, vs paclitaxel): extend one log unit lower than those for paclitaxel
GI50 (NCI-H322M): 0.593 nM
IC (TGI) ([2]; on the order of, various cancer cell lines): ~0.1 nM
dose response curves compared with paclitaxel ([2]; breast, ovarian, CNS, non-small lung cancer, FIGS. 1-4): extend one log unit lower
growth inhibition (GI50) compared with paclitaxel ([2]; in general, vs paclitaxel): active at a much lower concentration as compared to paclitaxel
total growth inhibition compared with paclitaxel ([2]; various cancer cell lines, vs paclitaxel): more active than paclitaxel
GI50 (U251): 0.363 nM
IC (TGI) (MDA-N; [5]): 0.294 nM
GI50 (MDA-N; 48 hours): 0.105 nM
IC (TGI) (MDA-MB-435): 0.215 nM
IC (TGI) (HS578T; [5]): 0.592 nM
GI50 (HS578T; 48 hours): 0.18 nM
GI50 (OVCAR-3; Homo sapiens, OVCAR-3, ovarian cancer, 48 hours): 0.266 nM
times more active than paclitaxel (GI50) (OVCAR-3; OVCAR-3, vs paclitaxel): 18 times
GI50 (RPMI-8226): 0.266 nM
GI50 (A549/ATCC): 0.575 nM
solubility [3]: 240 µg/mL
GI50 (RXF-393; Homo sapiens, RXF-393, renal cancer, 48 hours): 0.496 nM
times more active than paclitaxel (GI50) (RXF-393; RXF-393, vs paclitaxel): 23 times
GI50 (SNB-75; SNB-75, CNS cancer, 48 hours, read-out: GI50): 0.21 nM
times more active than paclitaxel (TGI) (SNB-75; SNB-75, CNS cancer, vs paclitaxel): 67 times
times more active than paclitaxel (GI50) (SNB-75; SNB-75, vs paclitaxel): 65 times
GI50 (SW-620): 0.348 nM
GI50 (SF-268; SF-268, CNS cancer, 48 hours, read-out: GI50): 0.275 nM
times more active than paclitaxel (GI50) (SF-268; SF-268, vs paclitaxel): 28 times
dose response curve compared with paclitaxel (CNS cancer): extend one log unit lower than those for paclitaxel
times more active than paclitaxel (GI50) (UACC-62): 1490 times
GI50 (NCI-H23; Homo sapiens, NCI-H23, non small lung cancer, 48 hours): 0.428 nM
times more active than paclitaxel (GI50) (NCI-H23; NCI-H23, vs paclitaxel): 107 times
GI50 (EKVX): 1.98 nM
GI50 (SF-539): 0.22 nM
GI50 (OVCAR-5; Homo sapiens, OVCAR-5, ovarian cancer, 48 hours): 0.156 nM
times more active than paclitaxel (GI50) (OVCAR-5; OVCAR-5, vs paclitaxel): 32 times
GI50 (HCC-2998): 0.152 nM
GI50 (NCI-H226): 0.419 nM
GI50 (SK-OV-3): 0.502 nM
GI50 (MOLT-2): 0.487 nM
GI50 (SNB-19): 0.354 nM
times more active than paclitaxel (TGI) (HT-29; HT-29, colon cancer, vs paclitaxel): 303 times
times more active than paclitaxel (GI50) (HT-29; HT-29, vs paclitaxel): 40 times
GI50 (HT-29; Homo sapiens, HT-29, colon cancer, 48 hours): 0.127 nM
dose response curve compared with paclitaxel [4]: extend one log unit lower than those for paclitaxel
GI50 (HOP-62): 1.13 nM
times more active than paclitaxel (GI50) (786-0; 786-0, vs paclitaxel): 11 times
GI50 (786-0; Homo sapiens, 786-0, renal cancer, 48 hours): 1.33 nM
GI50 (NCI-H522): 0.184 nM
GI50 (T-47D; Homo sapiens, T47D, breast cancer, 48 hours): 0.804 nM
times more active than paclitaxel (GI50) (T-47D; vs paclitaxel): 14 times

CC(=O)O[C@H]1C(=O)[C@@]2(C)[C@H]([C@H](OC(=O)c3ccccc3)[C@]3(O)C[C@H](OC(=O)[C@H](O)[C@@H](NC(=O)c4ccccc4)c4ccccc4)C(C)=C1C3(C)C)[C@]1(OC(C)=O)CO[C@@H]1C[C@@H]2O [paclitaxel]
GI50 (breast cancer cell lines): 10 to 100 nM
GI50 ([1]; 48 h): 1 to 10 nM
IC (TGI) [2]: 10 to 100 nM
GI50 (SNB-75; SNB-75, 48 h): 13.6 nM
GI50 (SF-268; SF-268, 48 h): 7.61 nM
